In assay [1] the test system is carbapenem-resistant P. aeruginosa strains. In words: Resensitization of carbapenem-resistant clinical strains using carbapenems in combination with lysins. It is filed as cell-based. The following applies: for MIC: Pseudomonas aeruginosa, meropenem alone (GN121 checkerboard). On the procedure:
The checkerboard assays is based on a modification of the CLSI method for MIC determination by broth microdilution (26, 29). Checkerboards were constructed by first preparing columns of a 96-well polypropylene microtiter plate, in which each well had the same amount of antibiotic diluted 2-fold along the horizontal axis. […] Summation fractional inhibitory concentrations (ΣFICs) were calculated for each drug and the minimum ΣFIC value (ΣFICmin) was used to determine synergy. ΣFICs were calculated as follows: ΣFIC=FIC A+FIC B, where FIC A is the MIC of each antibiotic in the combination/MIC of each antibiotic alone, and FIC B is the MIC of each GN lysin in the combination/MIC of each GN lysin alone. The combination is considered synergistic when the ΣFIC is ≤0.5, strongly additive when the ΣFIC is >0.5 to <1, additive with the ΣFIC is 1−<2, and antagonistic when the ΣFIC is ≥2.
Up to seven carbapenem-resistant isolates were assessed. […] See Clinical and Laboratory Standards Institute (CLSI), CLSI. […] M100 Performance Standards for Antimicrobial Susceptibility Testing; 29th Edition. Clinical and Laboratory Standards Institute, Wayne, Pa.

Assay [2] has as its system P. aeruginosa strain ATCC 17647. In words: Minimal Biofilm Eradicating Concentration (MBEC), Calgary Biofilm Device. It is filed as cell-based, Pseudomonas aeruginosa. The following applies: 24 h biofilm, 24 h treatment; minimum concentration removing >95% of biofilm biomass (crystal violet). From the text:
All samples were examined in triplicate.

Assay [3] relates to P. aeruginosa. In words: Minimal inhibitory concentration (MIC), modified CLSI broth microdilution in CAA or CAA/HuS. It is filed as cell-based, Pseudomonas aeruginosa. The conditions noted are these: for MIC (μg/mL) in CAA: CAA media; for MIC (μg/mL in CAA/HuS) / MIC value in CAA/HuS: CAA supplemented with 25% human serum. (In general: Dilution methods test growth across graded concentrations, often in twofold steps.)

Assay [4] deals with P. aeruginosa. In words: Time-kill assay of GN lysin activity. The conditions noted are these: lysin 10 μg/mL, T = 0 7.8; for Log10 CFU/mL T = 3 hr: buffer control 7.2, limit of detection 3.7; for Log10 CFU/mL T = l hr: buffer control 7.7. In kind it is cell-based, Pseudomonas aeruginosa. On the procedure:
All treatments were incubated at 37° C. with aeration.

Setting [5] is: HEPES buffer, ‡ indicates bactericidal activity.

Where two headings read alike, the source gives them in different places.

The values that follow come from patent publication US20220160843A1 (priority 2019, published 2022).

As to `C[C@@H](O)[C@H]1C(=O)N2C(C(=O)O)=C(SCCN=CN)C[C@H]12` [Imipenem, imipenem, reference compound], the “IMIPENEM MIC Combination” value in assay [1] (isolate PA19, imipenem in combination with GN121) was 1 (S) μg/mL; in assay [1] (isolate PA19, imipenem in combination with GN123), 0.5 (S) μg/mL; in assay [1] (isolate PA20, imipenem in combination with GN121) it was 0.5 (S) μg/mL; in assay [1] (isolate PA20, imipenem in combination with GN123), 1 (S) μg/mL; in assay [1] (isolate PA21, imipenem in combination with GN121), 1 (S) μg/mL; in assay [1] (isolate PA21, imipenem in combination with GN123), 0.5 (S) μg/mL. Also, the “IMIPENEM MIC Combination” value in assay [1] (isolate PA22, imipenem in combination with GN121) is listed as 2 (S) μg/mL; in assay [1] (isolate PA22, imipenem in combination with GN123), 2 (S) μg/mL; in assay [1] (isolate PA23, imipenem in combination with GN123) it was 0.25 (S) μg/mL; in assay [1] (isolate PA24, imipenem in combination with GN121), 1 (S) μg/mL; in assay [1] (isolate PA24, imipenem in combination with GN123), 2 (S) μg/mL; in assay [1] (isolate WC-452, imipenem in combination with GN123), 1 (S) μg/mL.

Turning to `C[C@@H](O)[C@H]1C(=O)N2C(C(=O)O)=C(S[C@@H]3CN[C@H](C(=O)N(C)C)C3)[C@H](C)[C@H]12` [Meropenem, meropenem, reference compound], the MIC (usually the lowest concentration that inhibits growth of the organism) in assay [1] (GN121, read-out: Meropenem MIC Alone, isolate PA19) stood at 32 µg/mL; in assay [1] (GN121, read-out: Meropenem MIC Alone, isolate PA21), 32 µg/mL; in assay [1] (GN121, read-out: Meropenem MIC Alone, isolate PA22) it was 16 µg/mL; in assay [1] (GN121, read-out: Meropenem MIC Alone, isolate PA23), 16 µg/mL; in assay [1] (GN121, read-out: Meropenem MIC Alone, isolate PA24), 32 µg/mL; in assay [1] (GN121, read-out: Meropenem MIC Alone, isolate WC-452), 16 µg/mL. Also, the “Meropenem MIC Combination” value is 1 µg/mL in assay [1] (isolate PA19, meropenem in combination with GN121); 0.5 (S) μg/mL in assay [1] (isolate PA19, meropenem in combination with GN123); 1 µg/mL in assay [1] (isolate PA20, meropenem in combination with GN121); 0.5 (S) μg/mL in assay [1] (isolate PA20, meropenem in combination with GN123); 2 µg/mL in assay [1] (isolate PA21, meropenem in combination with GN121); 1 (S) μg/mL in assay [1] (isolate PA21, meropenem in combination with GN123). Also, the “Meropenem MIC Combination” value in assay [1] (isolate PA22, meropenem in combination with GN121) was 1 µg/mL; in assay [1] (isolate PA22, meropenem in combination with GN123), 1 (S) μg/mL; in assay [1] (isolate PA23, meropenem in combination with GN121), 2 µg/mL; in assay [1] (isolate PA23, meropenem in combination with GN123) it was 0.5 (S) μg/mL; in assay [1] (isolate PA24, meropenem in combination with GN121) it was 1 µg/mL; in assay [1] (isolate PA24, meropenem in combination with GN123), 2 (S) μg/mL. Moreover, the “Meropenem MIC Combination” value in assay [1] (isolate WC-452, meropenem in combination with GN121) was 1 µg/mL; in assay [1] (isolate WC-452, meropenem in combination with GN123), 1 (S) μg/mL.

B1: GN94: Modified GN37, N-terminal peptide KFFKFFKFFK with linker, SEQ ID NO: 14 (protein)
chain: KFFKFFKFFKAGAGAGAGAGAGAGAGASMTYTLSKRSLDNLKGVHPDLVAVVHRAIQLTPVDFAVIEGLRSVSRQKELVAAGASKTMNSRHLTGHAVDLAAYVNGIRWDWPLYDAIAVAVKAAAKELGVAIVWGGDWTTFKDGPHFELDRSKYR
For the molecule B1, the “MBEC” value in assay [2] was 2 µg/mL. Further, in the assay on P. aeruginosa [3], the “MIC (μg/mL) in CAA” value was 16 µg/mL, the “MIC (μg/mL in CAA/HuS)” value came out at 2 µg/mL and the MIC value in CAA/HuS is 2 µg/mL. Further, the “Log10 CFU/mL T = 3 hr” value in the assay on P. aeruginosa [4] (CAA/HuS, ‡ indicates bactericidal activity) is <3.7‡ Log10 CFU/mL. For the same molecule, the “Log10 CFU/mL T = l hr” value in the assay with P. aeruginosa [4] (CAA/HuS) was found to be 6.4 Log10 CFU/mL. Moreover, in the assay on P. aeruginosa [4] (setting [5]), the “Log10 CFU/mL T = 3 hr” value is listed as <3.7‡ Log10 CFU/mL and the “Log10 CFU/mL T = l hr” value was found to be 6.0 Log10 CFU/mL.

B2: GN54: Modified GN4, N-terminal peptide KRKKRKKRK with linker, SEQ ID NO: 8 (protein)
chain: KRKKRKKRKAGAGAGAGAGAGAGAGASMRTSQRGIDLIKSFEGLRLSAYQDSVGVWTIGYGTTRGVTRYMTITVEQAERMLSNDIQRFEPELDRLAKVPLNQNQWDALMSFVYNLGAANLASSTLLKLLNKGDYQGAADQFPRWVNAGGKRLDGLVKRRAAERALFLEPLS
For B2, in the assay on P. aeruginosa [3], the “MIC (μg/mL) in CAA” value was 64 µg/mL, the “MIC (μg/mL in CAA/HuS)” value is 2 µg/mL and the MIC value in CAA/HuS was 2 µg/mL. Besides, the activity in serum result in the assay on P. aeruginosa [3] (human serum) is on record as “does have activity in serum”.
